Results reported in patent US8460867B2, “Methods of treating psychosis and schizophrenia based on polymorphisms in the CNTF gene” (Novartis AG, priority 2001, dated 2013).

B1: CNTF: Ciliary Neurotrophic Factor, survival factor for neuronal cell types, member of the interleukin-6 cytokine family (protein, UniProt P26441 1-200, looked up)
Ciliary neurotrophic factor: MAFTEHSPLTPHRRDLCSRSIWLARKIRSDLTALTESYVKHQGLNKNINLDSADGMPVASTDQWSELTEAERLQENLQAYRTFHVLLARLLEDQQVHFTPTEGDFHQAIHTLLLQVAAFAYQIEELMILLEYKIPRNEADGMPINVGDGGLFEKKLWGLKVLQELSQWTVRSIHDLRFISSHQTGIPARGSHYIANNKKM

How the values were obtained:
schizophrenic patients = assay: Clinical trial of Iloperidone in schizophrenic patients, pharmacogenetic analysis by CNTF 103 G>A genotype; format: in vivo, human
Source text: In an effort to identify genetic factors that may associate with treatment response to Iloperidone, the relationship between a polymorphism in the CNTF (ciliary neurotrophic factor) gene (located on 11q12.2, the polymorphism being 103 G>A in GenBank sequence X55890 (Version 1), see PubMed: 9285965) and the clinical response to the antipsychotic Iloperidone in a clinical trial was investigated. This trial was a randomized, double-blind, placebo- and risperidone-controlled, multicenter study to evaluate the efficacy and safety of two non-overlapping dose ranges of lloperidone (12 or 16 mg/d and 20 or 24 mg/d and risperidone (6 or 8 mg/d) compared with placebo, given twice-daily (b.i.d) for 42 days to schizophrenic patients followed by a long-term treatment phase with lloperidone given once daily (q.d) at doses of 4, 8, 12, 16, or 24 mg/d for 46 weeks to patients with schizophrenia.
Pharmacogenetic analysis for candidate gene polymorphisms was conducted in Phase II of the clinical trial. It was determined whether the CNTF (ciliary neurotrophic factor) 103 G>A polymorphism (GenBank sequence X55890 (Version 1)) 103 G>A, (expressed protein alteration FS63 TER) was associated with any of the clinical parameters of efficacy studied in the course of the clinical trial and specifically changes in the BPRSA, Total PANNS, Positive PANNS, Negative PANNS and General PANNS scales.
A total of 207 unique blood samples were collected from the patients at the trial sites. The DNA was extracted by Covance (Geneva) using the PUREGENE™ DNA Isolation Kit (D-50K). The CNTF 103 G>A polymorphism (GenBank sequence X55890 (Version 1)) polymorphism was described by Takahashi, see, Takahashi et al. Nature Genet. 7: 79-84, 1994.
The probe sets for genotyping were designed and synthesized by Third Wave Technologies, Inc (Madison, Wis.). […]

ob/ob mice = settings: systemic administration; cited from earlier work
[1] = system: mice with diet-induced obesity; settings: partially resistant to leptin; cited from earlier work
db/db mice = settings: which lack a functional leptin receptor; cited from earlier work
pmn/pmn mice = settings: also when degenerative alterations were already present; cited from earlier work

| Molecule | association of Total PANSS and BPRSA with the CNTF 103 G>A polymorphism (schizophrenic patients; 12-16 mg dose (Group A), analysis of variance within treatments, p<0.001) | response of the GG type versus the placebo (schizophrenic patients; 12-16 mg treatment group, GG type of the CNTF gene, p<0.001) | treatment response (BPRSA and Total PANNS scales), GG type versus non-GG type of the CNTF gene (schizophrenic patients; 12-16 mg treatment group, schizophrenic patients, 42 days b.i.d.) | induction of the tis-11 primary response gene in the arcuate nucleus (ob/ob mice) | obesity-related phenotypes [1] | obesity-related phenotypes (db/db mice) | motor function and morphologic symptoms of neural degeneration (pmn/pmn mice) |
| --- | --- | --- | --- | --- | --- | --- | --- |
| COc1cc(C(C)=O)ccc1OCCCN1CCC(c2noc3cc(F)ccc23)CC1 [Iloperidone] | significantly associated | highly significant | responded significantly better than the non-GG type | – | – | – | – |
| LEP: leptin (LEP) cytokine | – | – | – | rapid induction | – | – | – |
| B1 | – | – | – | rapid induction | reduced obesity-related phenotypes | reduced obesity-related phenotypes | successfully improved motor function and reduced the morphologic symptoms of neural degeneration |
